# Strand notation (5' to 3'): a small letter for the sugar, then the base; units joined by * are phosphorothioate-linked, units joined directly phosphodiester-linked; [ ] holds rarer units or linkages, { } end groups; capitals alone tell only the bases. r = 2'-OH (RNA)
# Legend:
# human PBMCs = assay: Stimulatory capacity of ORN with PTO or PD backbone in human PBMCs; format: cell-based
# Description: (§1) To further investigate the role of TLR9 in the recognition of PD ssRNA, various RNA sequences, such as RNA41 (5′-[…]-3′; SEQ ID NO:4) and RNA42 (5′-[…]-3′; SEQ ID NO:5) that have been previously described as not active in murine cells when synthesized with a PTO backbone (Heil, Hemmi et al. 2004), were synthesized.
# murine cells [1] = assay: Stimulatory capacity of ORN with PTO or PD backbone in murine cells; format: cell-based; settings: TLR7-independent fashion
# Description: as §1
# TLR9-deficient mDC = assay: IL-12p40 production by TLR9-deficient mDC; format: cell-based, murine
# Description: as §1
# [2] = test system: TLR7/TLR9 double deficient sorted mDCs; assay: ssRNA stimulation of TLR7/TLR9 double deficient sorted mDCs; format: cell-based, mice
# Description: (§2) Since the ssRNA-driven TLR7-independent immune stimulation is dependent on MyD88 and endosomal maturation, it was hypothesized that other intracellular TLRs are involved. TLR3 seems a poor candidate for the recognition of ssRNA since it mainly relies on the adaptor molecule TRIF and not MyD88 (Hoebe, Du et al. 2003). Nevertheless, to rule out TLR3 as receptor for ssRNA, TLR3- and TLR7-deficient mice were crossed to obtain TLR3/TLR7 double deficient mice, and immune cells from these mice were tested for ssRNA stimulation. […] TLR7/TLR9 double deficient mice were also generated to investigate the involvement of TLR9 in RNA63 recognition.
# [3] = test system: TLR3/TLR7 double deficient FLT3-L-induced DCs; assay: ssRNA stimulation of TLR3/TLR7 double deficient FLT3-L-induced DCs; format: cell-based, mice
# Description: as §2
# [4] = test system: TLR7-deficient FLT3-L-induced DCs; assay: RNA63-induced activation of siRNA-transfected TLR7-deficient FLT3-L-induced DCs; format: cell-based, murine
# Description: (§3) The reduction in RNA63-driven immune activation correlated with siRNA-driven downregulation of mTLR8 RNA.
# [5] = test system: TLR7/TLR9 double deficient GM-CSF-derived DCs; assay: ssRNA stimulation of TLR7/TLR9 double deficient GM-CSF-derived DCs; format: cell-based, mice
# Description: as §2
# murine cells [6] = settings: synthesized with a PTO backbone; Heil, Hemmi et al. 2004; cited from earlier work
# [7] = test system: Wild-type FLT3-L-induced DCs; assay: IL-12 secretion of siRNA-treated wild-type FLT3-L-induced DCs on ssRNA stimulation; format: cell-based, murine; settings: wild-type FLT3-L-induced DCs treated with mTLR8-specific siRNA; for reduction in IL-12 secretion in mTLR8-specific siRNA-treated cells: then stimulated with the ORN
# Description: as §3
# [8] = test system: pDC, TLR7-single deficient cells; assay: Recognition of ssRNA by pDC, TLR7-single deficient cells; format: cell-based, murine
# Description: as §1
# [9] = test system: pDC, TLR9-single deficient cells; assay: Recognition of ssRNA by pDC, TLR9-single deficient cells; format: cell-based, murine
# Description: as §1
# pDC, wild-type cells = assay: Recognition of ssRNA by pDC, wild-type cells; format: cell-based, murine; settings: for Recognition by pDC: wild-type cells
# Description: as §1
# MyD88−/− dendritic cells [10] = assay: IL-12p40 ELISA, FLT3-L-induced dendritic cells, MyD88−/−; format: cell-based, mice; settings: with DOTAP, 24 hours, FIG. 6
# Method: (§4) FLT3-L-induced dendritic cells were separately prepared from wild-type, TLR7−/−, and MyD88−/− mice and cultured for 24 hours in the presence of RNA63 PD or RNA63 PTO, each with DOTAP, as in Example 2. After 24 hours incubation, cells were collected and analyzed by ELISA for IL-12p40 and by FACS for CD69.
# [11] = test system: TLR7−/− FLT3-L-induced dendritic cells; assay: FACS for CD69 on FLT3-L-induced dendritic cells, TLR7−/−; format: cell-based, mice; settings: with DOTAP, 24 hours, FIG. 4
# Method: (§5) FLT3-L-induced dendritic cells were prepared from wild-type and TLR7−/− mice and cultured for 24 hours in the presence of RNA63 PD or RNA63 PTO, each with DOTAP, as in Example 2. After 24 hours incubation, cells were collected and analyzed by FACS for CD69.
# [12] = test system: peripheral blood mononuclear cells from wild-type mice; assay: IL-12p40 ELISA on supernatants of peripheral blood mononuclear cells, wild-type mice; format: cell-based; settings: added with DOTAP, 24 hours, FIG. 2
# Method: (§6) Peripheral blood mononuclear cells were isolated from wild-type and TLR7−/− mice, transferred into suitable growth medium, and then aliquoted separately into individual wells of multiwell culture plates. The following agents were added to individual wells of cells: RNA63 PD, a single-stranded ORN having a nucleotide sequence provided as 5′-CAGGUCUGUGAU-3′ (SEQ ID NO:1), in which all internucleotide linkages are phosphodiester except for a phosphorothioate linkage between the A and U at the 3′ end of the ORN; RNA63 PTO, a single-stranded ORN having the same nucleotide sequence as SEQ ID NO: 1, in which every internucleotide linkage is phosphorothioate; CpG-ODN 1668, an oligodeoxynucleotide having a nucleotide sequence provided as 5′-[…]-3′ (SEQ ID NO:2); DOTAP alone; R-848; RNA63 PTO plus DOTAP; RNA63 PD plus DOTAP; and medium alone. Cells were maintained in culture for 24 hours, and then supernatants from individual wells collected and analyzed using enzyme-linked immunosorbent assay (ELISA) specific for IL-12p40. Data are presented as mean±SEM.
# [13] = test system: peripheral blood mononuclear cells from TLR7−/− mice; assay: IL-12p40 ELISA on supernatants of peripheral blood mononuclear cells, TLR7−/− mice; format: cell-based; settings: TLR 7−/− cells, added with DOTAP, 24 hours, FIG. 2
# Method: as §6
# MyD88−/− dendritic cells [14] = assay: FACS for CD69, FLT3-L-induced dendritic cells, MyD88−/−; format: cell-based, mice; settings: with DOTAP, 24 hours, FIG. 6
# Method: as §4
# [15] = test system: TLR7−/− GM-CSF-derived dendritic cells; assay: IL-12p40 ELISA, GM-CSF-derived dendritic cells, TLR7−/−; format: cell-based, mice; settings: with DOTAP, 24 hours, FIG. 5
# Method: (§7) M-CSF-derived macrophages and GM-CSF-derived dendritic cells were prepared from wild-type and TLR7−/− mice and cultured for 24 hours in the presence of RNA63 PD plus DOTAP, RNA63 PTO plus DOTAP. LPS, R-848, CpG-ODN 1668, CpG-ODN 2216, DOTAP alone, or medium alone. Culture supernatants were then collected and analyzed using ELISA for IL-12p40. Data are presented as mean±SEM.
# [16] = test system: M-CSF-derived macrophages from wild-type mice; assay: IL-12p40 ELISA, M-CSF-derived macrophages, wild-type; format: cell-based; settings: with DOTAP, 24 hours, FIG. 5
# Method: as §7
# [17] = test system: wild-type FLT3-L-induced dendritic cells; assay: Cytokine ELISA (IL-12p40, IL-6, IFN-α), FLT3-L-induced dendritic cells, wild-type; format: cell-based, mice; settings: with DOTAP, 24 hours; for IL-12p40 induction: FIG. 3A; for IL-6 induction: FIG. 3B; for IFN-α induction: FIG. 3C
# Method: (§8) FLT3-L-induced dendritic cells were prepared from wild-type and TLR7−/− mice and cultured in the presence of varied amounts of RNA63 PD or RNA63 PTO, each with DOTAP. After 24 hours incubation, supernatants were collected and analyzed by ELISA for IL-12p40, IL-6, and IFN-α. LPS, R-848, CpG-ODN 1668, CpG-ODN 2216 (5′-GGGGGACGATCGTCGGGGG-3′, SEQ ID NO:3), DOTAP alone, and medium alone were run as controls. Data are presented as mean±SEM.
# [18] = test system: wild-type FLT3-L-induced dendritic cells; assay: FACS for CD69 on FLT3-L-induced dendritic cells, wild-type; format: cell-based, mice; settings: with DOTAP, 24 hours, FIG. 4
# Method: as §5
# [19] = test system: TLR7−/− FLT3-L-induced dendritic cells; assay: Cytokine ELISA (IL-12p40, IL-6, IFN-α), FLT3-L-induced dendritic cells, TLR7−/−; format: cell-based, mice; settings: for IFN-α induction / IL-6 induction / IL-12p40 induction: with DOTAP, 24 hours
# Method: as §8
# [20] = test system: TLR7−/− M-CSF-derived macrophages; assay: IL-12p40 ELISA, M-CSF-derived macrophages, TLR7−/−; format: cell-based, mice; settings: with DOTAP, 24 hours, FIG. 5
# Method: as §7
# [21] = test system: GM-CSF-derived dendritic cells from wild-type mice; assay: IL-12p40 ELISA, GM-CSF-derived dendritic cells, wild-type; format: cell-based; settings: with DOTAP, 24 hours, FIG. 5
# Method: as §7
# TLR7-deficient mDC = assay: IL-12p40 production by TLR7-deficient mDC; format: cell-based, murine; settings: TLR7-single deficient mDC
# Description: as §1
substance,measurement,setting,value
"5′-ACCCAUCUAUUAUAUAACUC-3′ (listed as RNA, chemistry not fully specified) [RNA42 PD]",IFN-α stimulation,human PBMCs,no IFN-α
same,TNF-α stimulation,human PBMCs,stimulate
same,IFN-α stimulation,murine cells [1],stimulate
same,IL-6 stimulation,murine cells [1],stimulate
same,IL-12p40 stimulation,murine cells [1],stimulate
same,IL-12p40 production,TLR9-deficient mDC,failed to produce IL-12p40
"5′-CAGGUCUGUGAU-3′ (listed as RNA, chemistry not fully specified) [RNA63]",CD69 upregulation,[2],failed
same,IL-12p40 production,[2],failed to produce IL-12p40
same,RNA63-driven CD69 upregulation,[3],still functional
same,RNA63-driven IL-12p40 production,[3],still functional
same,RNA63-induced IL-12p40 production in DCs treated with mTLR8-specific siRNA,[4],strong reduction
same,activation markers such as CD40 in DCs treated with mTLR8-specific siRNA,[4]; RNA63 stimulation,downregulation
same,CD69 upregulation,[5],failed
same,IL-12p40 production,[5],failed to produce IL-12p40
"5′-ACCCAUCUAUUAUAUAACUC-3′ (listed as RNA, chemistry not fully specified) [RNA42, PTO in the cited result, probably PD in pDC and siRNA tests]",Activity in murine cells,murine cells [6],not active
same,reduction in IL-12 secretion in mTLR8-specific siRNA-treated cells,[7],50%
same,Response of pDC,[8],failed to respond
same,Response of pDC,[9],failed to respond
same,Recognition by pDC,"pDC, wild-type cells",also recognized
5′-CAGGUCUGUGAU-3′ [RNA63 PTO] (rC*rA*rG*rG*rU*rC*rU*rG*rU*rG*rA*rU) [reference compound],induction of IL-12p40,MyD88−/− dendritic cells [10],absent
same,CD69 induction,[11],not
same,IL-12p40 induction,[12],induced IL-12p40
same,IL-12p40 induction,[13],not
same,induction of CD69,MyD88−/− dendritic cells [14],absent
same,IL-12p40 induction,[15],not
same,IL-12p40 induction,[16],induced significant amounts of IL-12p40
same,IL-12p40 induction,[17],induced significant amounts
same,IL-6 induction,[17],induced significant amounts
same,IFN-α induction,[17],induced significant amounts
same,CD69 induction,[18],induced significant amounts of CD69
same,IFN-α induction,[19],not
same,IL-6 induction,[19],not
same,IL-12p40 induction,[19],not
same,IL-12p40 induction,[20],not
same,IL-12p40 induction,[21],induced significant amounts of IL-12p40
"5′-GCCCGUCUGUUGUGUGACUC-3′ [RNA40, reference compound]",Influence of mTLR8-specific siRNA on stimulation,[7],not influenced
same,IL-12p40 production,TLR9-deficient mDC,induced some IL-12p40
same,TLR dependence of recognition by pDC,"pDC, wild-type cells; GU-rich RNA",TLR7-dependent fashion
same,IL-12p40 production,TLR7-deficient mDC,induced some IL-12p40
"5′-GCCCGACAGAAGAGAGACAC-3′ (listed as RNA, chemistry not fully specified) [RNA41 PD]",IFN-α stimulation,human PBMCs,no IFN-α
same,TNF-α stimulation,human PBMCs,stimulate
same,IFN-α stimulation,murine cells [1],stimulate
same,IL-6 stimulation,murine cells [1],stimulate
same,IL-12p40 stimulation,murine cells [1],stimulate
same,IL-12p40 production,TLR9-deficient mDC,failed to produce IL-12p40
"5′-CAGGUCUGUGAU-3′ [RNA63 PD] (one 3' phosphorothioate linkage, chemistry not fully specified)",induction of IL-12p40,MyD88−/− dendritic cells [10],absent
same,CD69 induction,[11],induced CD69
same,IL-12p40 induction,[12],induced IL-12p40
same,IL-12p40 induction,[13],induced IL-12p40
same,induction of CD69,MyD88−/− dendritic cells [14],absent
same,IL-12p40 induction,[15],induced significant amounts of IL-12p40
same,IL-12p40 induction,[16],induced significant amounts of IL-12p40
same,IL-12p40 induction,[17],induced significant amounts
same,IL-6 induction,[17],induced significant amounts
same,IFN-α induction,[17],induced significant amounts
same,CD69 induction,[18],induced significant amounts of CD69
same,Dependence of the amount of IL-12p40 induced on concentration,[19]; varied amounts of ORN with DOTAP,varied in proportion to the concentration
same,IFN-α induction,[19],albeit less strongly
same,IL-6 induction,[19],albeit less strongly
same,IL-12p40 induction,[19],induced IL-112p40
same,IL-12p40 induction,[20],induced significant amounts of IL-12p40
same,IL-12p40 induction,[21],induced significant amounts of IL-12p40
"5′-GCCCGACAGAAGAGAGACAC-3′ (listed as RNA, chemistry not fully specified) [RNA41, PTO in the cited result, probably PD in pDC and siRNA tests]",Activity in murine cells,murine cells [6],not active
same,reduction in IL-12 secretion in mTLR8-specific siRNA-treated cells,[7],75%
same,Response of pDC,[8],failed to respond
same,Response of pDC,[9],failed to respond
same,Recognition by pDC,"pDC, wild-type cells",also recognized

# Reference: patent publication US20090214578A1, “Immunostimulatory Single-Stranded Ribonucleic Acid with Phosphodiester Backbone” (priority 2005, published 2009)
